Where two headings read alike, the source gives them in different places.
Tests used:
[1] = system: THP1 cells (FLT3 WT); assay: Combination drug screening with venetoclax in THP1 cells (Cell Titre Glo, 10 × 10); assay type: cell-based; details: for Excess HSA (sum excess HSA score, combination with venetoclax): 10 × 10 dataset, Cell Titre Glo at 48 hours, optimal of 4 dose combinations, negative = synergy; for Concentration needed to decrease the 312.5 nM Venetoclax response to <20%: Cell Titer Glo at 48 hours
Procedure: (§1) These assays were performed using the Cell Titre Glo assay, measured at 48 hours.
(§2) A smaller concentration indicates higher potency to synergize with Venetoclax.

[2] = system: MOLM14 D835Y cells; assay: MOLM14 D835Y cell viability assay (Cell Titer Glo); assay type: cell-based; details: cell viability, Cell Titer Glo, 48 hours, read-out: MOLM14 D835Y IC50
Method in brief: (§3)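 Luminescent ATP read-out (CellTiter-Glo, 15 min room temperature) taken 48 h after compound addition. Cells were MOLM14 carrying FLT3 D835Y or F691L mutations, plated at 1000 cells per well.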

[3] = biological target: T1, IRAK1 (Homo sapiens, UniProt P51617); assay: RBC HotSpot Kinase Assay, IRAK1; assay type: biochemical; details: isolated kinase enzyme, 33P-ATP, P81 filter-binding
T1 construct: purchased Reaction Biology (RBC HotSpot)
Method in brief: (§4)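 Reactions ran in 20 mM Hepes (pH 7.5) containing 10 mM MgCl2, 1 mM EGTA, 0.1 mM Na3VO4, 2 mM DTT, 0.02 mg/ml BSA, 0.01% Brij35 and 1% DMSO, plus required cofactors. Functional activity readout on the expressible enzyme form, sometimes C-terminally truncated or lacking receptor regulatory regions.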

[4] = biological target: T2, FLT3 (Homo sapiens, UniProt P36888); assay: RBC HotSpot Kinase Assay, FLT3; assay type: biochemical; set-up: purchased Reaction Biology (RBC HotSpot); details: isolated kinase enzyme, 33P-ATP, P81 filter-binding
T2 sequence (P36888 27-993): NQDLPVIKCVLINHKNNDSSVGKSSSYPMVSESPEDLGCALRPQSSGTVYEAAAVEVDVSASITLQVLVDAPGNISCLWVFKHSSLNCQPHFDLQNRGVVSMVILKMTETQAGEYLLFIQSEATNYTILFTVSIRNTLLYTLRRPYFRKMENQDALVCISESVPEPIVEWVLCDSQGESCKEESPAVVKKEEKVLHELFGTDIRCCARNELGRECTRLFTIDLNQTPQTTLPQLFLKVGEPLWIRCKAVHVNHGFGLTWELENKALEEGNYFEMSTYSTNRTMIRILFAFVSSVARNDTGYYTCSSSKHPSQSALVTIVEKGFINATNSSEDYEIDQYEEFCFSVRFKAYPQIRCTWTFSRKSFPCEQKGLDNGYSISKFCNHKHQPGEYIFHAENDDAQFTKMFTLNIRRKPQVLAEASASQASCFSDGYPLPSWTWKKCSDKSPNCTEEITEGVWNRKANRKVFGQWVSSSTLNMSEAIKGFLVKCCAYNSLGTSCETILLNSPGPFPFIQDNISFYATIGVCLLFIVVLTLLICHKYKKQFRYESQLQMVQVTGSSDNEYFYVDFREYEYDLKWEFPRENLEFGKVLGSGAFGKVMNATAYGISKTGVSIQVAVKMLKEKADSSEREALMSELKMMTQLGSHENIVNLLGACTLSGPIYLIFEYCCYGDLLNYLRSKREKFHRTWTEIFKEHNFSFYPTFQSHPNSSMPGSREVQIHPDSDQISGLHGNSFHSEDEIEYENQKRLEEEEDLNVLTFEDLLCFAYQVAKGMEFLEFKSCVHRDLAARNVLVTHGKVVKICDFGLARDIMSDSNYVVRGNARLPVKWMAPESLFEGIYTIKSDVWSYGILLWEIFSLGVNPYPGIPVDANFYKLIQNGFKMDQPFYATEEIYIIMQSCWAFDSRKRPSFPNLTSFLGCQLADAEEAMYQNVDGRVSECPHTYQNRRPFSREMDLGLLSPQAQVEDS
Method in brief: as §4

[5] = biological target: T3, IRAK4 (Homo sapiens, UniProt Q9NWZ3); assay: RBC HotSpot Kinase Assay, IRAK4; assay type: biochemical; set-up: purchased Reaction Biology (RBC HotSpot); details: isolated kinase enzyme, 33P-ATP, P81 filter-binding
T3 sequence (Q9NWZ3 1-460): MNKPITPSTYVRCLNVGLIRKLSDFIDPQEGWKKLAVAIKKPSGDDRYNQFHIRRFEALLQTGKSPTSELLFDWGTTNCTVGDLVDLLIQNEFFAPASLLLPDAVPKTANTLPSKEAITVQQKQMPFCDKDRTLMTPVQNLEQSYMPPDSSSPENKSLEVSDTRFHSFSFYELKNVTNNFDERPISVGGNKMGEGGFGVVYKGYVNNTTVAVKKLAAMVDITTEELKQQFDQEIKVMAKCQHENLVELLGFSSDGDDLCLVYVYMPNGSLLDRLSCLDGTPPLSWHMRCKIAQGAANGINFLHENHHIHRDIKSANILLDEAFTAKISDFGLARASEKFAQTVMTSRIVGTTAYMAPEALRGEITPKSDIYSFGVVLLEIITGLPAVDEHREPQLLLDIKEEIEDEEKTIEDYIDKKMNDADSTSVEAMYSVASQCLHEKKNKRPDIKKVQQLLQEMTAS
Method in brief: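 Radiometric filter-binding activity assay with isolated recombinant kinase (construct may be truncated or catalytic domain only) in 20 mM Hepes pH 7.5, 10 mM MgCl2, 1 mM EGTA, 2 mM DTT, 1% DMSO. Compound preincubated 20 min with kinase/substrate; reaction started with 33P-ATP, run 2 h at room temperature.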

[6] = system: MOLM14-D835Y cells (FLT3-ITD (D835Y) mutant); assay: Combination drug screening with venetoclax in MOLM14 (D835Y) cells (Cell Titre Glo, 10 × 10); assay type: cell-based; set-up: Excess HSA (sum excess HSA score, combination with venetoclax): scale not given here; details: for Excess HSA (sum excess HSA score, combination with venetoclax): 10 × 10 dataset, Cell Titre Glo at 48 hours, optimal of 4 dose combinations, negative = synergy; for Concentration of a compound of the disclosure, or gilteritinib, needed to decrease the 62.5 nM Ven response to <10% in MOLM14(D835Y) cells: combination with 62.5 nM Venetoclax, Cell Titer Glo, 48 hours, response <10%
Procedure: as §1, §2

[7] = system: MOLM14 F691L cells; assay: MOLM14 F691L cell viability assay (Cell Titer Glo); assay type: cell-based; details: Homo sapiens, MOLM-14; cell viability, Cell Titer Glo, 48 hours; read-out: MOLM14 F691L IC50
Method in brief: as §3

[8] = system: NF-κB-inducible SEAP reporter in THP-1-Blue NF-κB cells; assay: NF-kB SEAP reporter assay in THP-1-Blue NF-κB cells; assay type: cell-based; details: 24 hours
Procedure: THP-1-Blue NF-κB cells (InvivoGen) carrying a stable integrated NF-κB-inducible secreted embryonic alkaline phosphatase (SEAP) reporter construct were plated at a concentration of 1×10^5 cells per well. The cells were stimulated with Pam3CSK4 (1 ng/mL) or hIL1B (1 ng/mL). After 10-20 minutes, the cells were then treated with vehicle (DMSO) or serial dilutions of the test compounds (10 doses tested for each test compound, with a 1:10 dilution series starting at 1 μM or 3 μM) with a final volume of 200 μL for 24 hours at 37° C. After 24 hours, the cells were centrifuged and 20 μL supernatant was incubated with 180 μL QUANTI-Blue reagent at 37° C. for 30-60 minutes. The levels of NF-κB-induced was measured in a microplate reader at 620 nm.

[9] = THP-1-Blue NF-κB cells stimulated with Pam3CSK4 (1 ng/mL), read-out: NF-κB Pam3SCK4 IC50
[10] = THP-1-Blue NF-κB cells stimulated with hIL1B (1 ng/mL), read-out: NF-κB IL1B IC50

T1 sequence (P51617 whole entry): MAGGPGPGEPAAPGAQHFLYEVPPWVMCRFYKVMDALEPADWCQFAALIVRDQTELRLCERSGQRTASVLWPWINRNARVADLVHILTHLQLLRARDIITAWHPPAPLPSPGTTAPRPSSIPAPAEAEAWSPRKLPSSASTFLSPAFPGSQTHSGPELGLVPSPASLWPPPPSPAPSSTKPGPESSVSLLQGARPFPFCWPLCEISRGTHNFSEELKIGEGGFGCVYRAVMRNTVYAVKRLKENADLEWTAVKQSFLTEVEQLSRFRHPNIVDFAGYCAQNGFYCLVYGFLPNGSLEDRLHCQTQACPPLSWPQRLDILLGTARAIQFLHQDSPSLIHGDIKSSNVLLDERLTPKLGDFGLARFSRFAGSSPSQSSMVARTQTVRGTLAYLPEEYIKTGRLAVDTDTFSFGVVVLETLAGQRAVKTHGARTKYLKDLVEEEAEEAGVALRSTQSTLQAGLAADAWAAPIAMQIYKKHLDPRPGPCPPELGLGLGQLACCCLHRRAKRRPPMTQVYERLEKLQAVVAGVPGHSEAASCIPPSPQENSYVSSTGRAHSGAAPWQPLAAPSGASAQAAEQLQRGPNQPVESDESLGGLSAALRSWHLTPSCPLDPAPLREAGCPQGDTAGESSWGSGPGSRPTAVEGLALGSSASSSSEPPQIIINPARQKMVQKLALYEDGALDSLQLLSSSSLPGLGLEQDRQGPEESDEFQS

SMILES	Excess HSA (sum excess HSA score, combination with venetoclax) [1]	Concentration needed to decrease the 312.5 nM Venetoclax response to <20% [1] [nM]	IC50 ([2]; Homo sapiens, MOLM-14, 48 h) [nM]	IC50 [3] [nM]	IC50 [4] [nM]	IC50 [5] [nM]	Excess HSA (sum excess HSA score, combination with venetoclax) [6]	Concentration of a compound of the disclosure, or gilteritinib, needed to decrease the 62.5 nM Ven response to <10% in MOLM14(D835Y) cells [6] [nM]	IC50 [2] [nM]	IC50 [7] [nM]	IC50 [8, 9] [nM]	IC50 [8, 10] [nM]
CC(O)(c1ccc2ncc(-c3nc(N[C@H]4CNCC[C@@H]4F)ncc3F)n2c1)C(F)(F)F (single isomer, unassigned) [Compound 34a]	−683.5	1250	51	4	0.6	2	−1437.9420	100	–	–	–	–
CC(O)(c1ccc2ncc(-c3nc(N[C@H]4CNCC[C@@H]4F)ncc3F)n2c1)C(F)(F)F (single isomer, unassigned) [Compound 35a]	−937.7	1250	–	0.9	< 0.5	0.7	−1543	25	26	–	–	–
COc1cnc(N[C@H]2CNC[C@@H]2F)nc1-c1cnc2cc(OC)c(C3CC3)nn12 [Compound 104a, 4-(6-cyclopropyl-7-methoxyimidazo[1,2-b]pyridazin-3-yl)-N-((3S,4S)-4-fluoropyrrolidin-3-yl)-5-methoxypyrimidin-2-amine]	–	–	711	4860	14	25	−2179	–	–	6340	–	–
COc1cc2ncc(-c3nc(N[C@@H]4CCCNC4)ncc3F)n2nc1N1CCOCC1 [Compound 120a, (R)-5-fluoro-4-(7-methoxy-6-morpholinoimidazo[1,2-b]pyridazin-3-yl)-N-(piperidin-3-yl)pyrimidin-2-amine]	–	–	5	10	< 0.5	10	–	–	–	45	339	217
COc1cc2ncc(-c3nc(N[C@H]4CNCC[C@@H]4F)ncc3F)n2nc1N1CCOCC1 [Compound 121a, 5-fluoro-N-((3S,4S)-4-fluoropiperidin-3-yl)-4-(7-methoxy-6-morpholinoimidazo[1,2-b]pyridazin-3-yl)pyrimidin-2-amine]	–	–	2	1	< 0.5	0.7	–	–	–	20	89	57
COc1cc2ncc(-c3nc(N[C@H]4CNCC[C@@H]4F)ncc3F)n2nc1N1CCS(=O)(=O)CC1 [Compound 122a, 4-(3-(5-fluoro-2-(((3S,4S)-4-fluoropiperidin-3-yl)amino)pyrimidin-4-yl)-7-methoxyimidazo[1,2-b]pyridazin-6-yl)thiomorpholine 1,1-dioxide]	–	–	11	22	< 0.5	18	–	–	–	127	407	407
COc1cc2ncc(-c3nc(N[C@H]4CNCC[C@@H]4F)ncc3F)n2nc1[C@H]1C[C@H](O)C1 [Compound 125a, (Trans)-3-(3-(5-fluoro-2-(((3S,4S)-4-fluoropiperidin-3-yl)amino)pyrimidin-4-yl)-7-methoxyimidazo[1,2-b]pyridazin-6-yl)cyclobutan-1-ol]	–	–	2	< 0.5	< 0.5	< 0.5	–	–	–	16	30	29
COc1cc2ncc(-c3nc(N[C@H]4CNCC[C@@H]4F)ncc3F)n2nc1[C@H]1C[C@@H](O)C1 [Compound 126a, Cis-3-(3-(5-fluoro-2-(((3S,4S)-4-fluoropiperidin-3-yl)amino)pyrimidin-4-yl)-7-methoxyimidazo[1,2-b]pyridazin-6-yl)cyclobutan-1-ol]	–	–	4	37	< 0.5	< 0.5	–	–	–	80	192	183
CCc1nc(C(N)=O)c(Nc2ccc(N3CCC(N4CCN(C)CC4)CC3)c(OC)c2)nc1NC1CCOCC1 [Gilteritinib, reference compound]	−1626	10000	–	–	–	–	−1556	125	–	–	–	–

Source: US20260226048A1, “MULTI-CYCLIC IRAK AND FLT3 INHIBITING COMPOUNDS AND USES THEREOF” (CHILDREN'S HOSPITAL MEDICAL CENTER, priority 2023, published 2026)
